Laboratory results taken from ChEMBL document CHEMBL1149967, “Synthesis and antitumor activity of novel distamycin derivatives” (Bioorg Med Chem Lett, 1996).

What was measured:
Mus musculus = assay: In vivo inhibition of L1210 murine leukemia, expressed as optimal non toxic dose (CD2F1 mice were given an injection of […] i.p. and treated on day 1); type: functional
L1210 = assay: In vitro inhibition of L1210 murine leukemia (Drug sensitivity was determined by counting surviving cells after 48 hr of continuous exposure to at least 4 conc. of drug); type: functional, cell-based; details: Mus musculus, L1210, 48 h

SMILES | OD (Mus musculus) [mg/kg] | IC50 (L1210) [µg/mL]
Cl.Cn1cc(NC(=O)c2cc(NC(=O)c3cc(NC(=O)c4ccc(N(CCCl)CCCl)cc4)cn3C)cn2C)cc1C(=O)NCCC(=N)N [TALLIMUSTINE CHLORIDE] | 3.13 | –
C=C(Br)C(=O)Nc1cn(C)c(C(=O)Nc2cc(C(=O)Nc3cc(C(=O)Nc4cc(C(=O)NCCC(=N)N)n(C)c4)n(C)c3)n(C)c2)n1.Cl | 6.25 | –
Cl.Cn1cc(NC(=O)c2cc(NC(=O)c3cc(NC(=O)c4nc(NC(=O)c5ccc(N(CCCl)CCCl)cc5)cn4C)cn3C)cn2C)cc1C(=O)NCCC(=N)N | 6.25 | 2
C=C(Br)C(=O)Nc1cc(C(=O)Nc2cc(C(=O)Nc3cc(C(=O)Nc4cc(C(=O)NCCC(=N)N)n(C)c4)n(C)c3)n(C)c2)n(C)n1.Cl | 6.25 | –
Cl.Cn1cc(NC(=O)c2cc(NC(=O)c3cc(NC(=O)c4cc(NC(=O)c5ccc(N(CCCl)CCCl)cc5)nn4C)cn3C)cn2C)cc1C(=O)NCCC(=N)N | 3.13 | 0.0291
